Converted amounts (≈) assume the structure as drawn. Like-named read-outs stand apart in the source and are kept apart here.
How the values were obtained:
EAEC strain 042 = experiment: Quantitative biofilm assay, EAEC; assay type: cell-based, Escherichia coli
Experimental: A quantitative biofilm assay was used to determine the effect of NTZ on biofilm formation (41). Strain 042 was grown overnight at 37° C. with shaking and inoculated 1:100 in 200 μl culture medium in Costar 96-well, flat-bottom, polystyrene microtiter plates containing appropriate concentrations of NTZ. Plates were incubated statically at 37° C. in a humidified incubator. At 24 h, bacterial growth was measured by either transferring […] aliquots to another microtiter plate to determine turbidity or by diluting 100 μl aliquots 1:100 in 9.9 ml PBS for quantitative plate counts on LB medium. Bacterial counts in triplicate are reported as cfu/ml. Biofilm was visualized following staining with 0.5% crystal violet (41) and the absorbance was read at 570 nm using a microplate reader (Molecular Dynamics). All experiments were in triplicate and reported as mean and standard deviation.
Assays were initially performed with and without 25 μg/ml NTZ using five different growth media: DMEM, DMEM with 0.4% glucose, LB, LB with 0.4% glucose, and our chemically defined medium containing 1% glucose. E. coli DH5αt served as a negative control for biofilm formation. Assays were then run with increasing concentrations of NTZ (0, 5, 10, 15, 20, 25 μg/ml) both in the chemically defined medium and in DMEM with 0.4% glucose. […]

EAEC = experiment: Motility in soft agar; assay type: cell-based, Escherichia coli; details: concentrations that inhibited biofilm formation
Experimental: EAEC strains were grown overnight in MinA-G medium at 37° C. with shaking and used to inoculate fresh MinA-G medium containing a range of NTZ concentrations (0, 5, 10, 15, 20, and 25 μg/ml) to a starting OD600 of 0.1. Growth was recorded as the absorbance at 600 nm at 30-minute intervals over a period of eight hours. […] Motility was assessed in LB soft agar (0.3% agar) containing 0 to 25 μg/ml of NTZ. The diameter of outward spreading was measured daily and inhibition computed as percent of control.

MRSA = experiment: MIC testing by broth dilution, MRSA; assay type: cell-based, Staphylococcus aureus
Method in brief: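 Values are broth-dilution MICs, defined as the well showing no growth on visual reading after 24 h; the tested range was 32 to 0.06 μg/ml, in organism-specific media (LB, Trypticase Soy, Brain Heart Infusion). The C. difficile entries come instead from anaerobic Kirby-Bauer disk zones, normalised to NTZ.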

C. difficile = experiment: Disk diffusion (Kirby Bower), C. difficile; assay type: cell-based, Clostridium difficile; details: for Disk Diff (%) C. difficile: Nitazoxanide = 100
Method in brief: (§1)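 Twofold broth microdilution from 32 μg/ml down to 0.06, in LB for E. coli, Trypticase Soy for S. epidermidis (planktonic) and Brain Heart Infusion for C. jejuni. C. difficile: anaerobic disk diffusion on Wilkins Chalgrin agar, inhibition zone expressed as a ratio to the NTZ zone.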

C. jejuni = experiment: MIC testing by broth dilution, C. jejuni; assay type: cell-based, Campylobacter jejuni
Method in brief: as §1

[1] = tested on: PFOR (pyruvate ferredoxin oxidoreductase); experiment: Direct PFOR enzyme assay; assay type: biochemical
[2] = Zn2+ chelation, spectrophotometric and 1H NMR; assay type: physicochemical; details: 1H NMR in DMSO-d6, ratios 1:1, 1:2, 2:1, up to 72 h
Experimental: To test direct binding of Zn^2+ by NTZ in solution, we tested a range of concentrations of both NTZ and TIZ and scanned the solutions spectrophotometrically using an OLIS Cary-14 (OLIS Instruments Co., Bogart Ga.). Absolute spectra were recorded over a UV/Vis range from 220 nm to 700 nm. Spectral shifts in the 418 nm range would be attributable to changes in resonance within the thiazole ring that would result if Zn^2+ were coordinated by NTZ (9).
Chelation experiments were also performed utilizing NTZ and TIZ in DMSO-d6 (0.5 mL) with ZnCl2 using a 300 MHz Varian MercuryPlus spectrometer. Specifically, three ratios of NTZ to Zn^2+ were investigated (1:1, 1:2, 2:1) where NTZ was held constant (4 mg, 13 μmoles) while varying ZnCl2 (1.8 mg, 13 μmoles or 3.5 mg, 26 μmoles) or NTZ (8 mg, 26 μmoles) with ZnCl2 (1.8 mg, 13 μmoles). Three ratios of TIZ to Zn^2+ were also investigated (1:1, 1:2, 2:1) where TIZ was held constant (4 mg, 15 μmoles) while varying ZnCl2 (2.1 mg, 15 μmoles or 4.1 mg, 30 μmoles) or TIZ (8 mg, 30 μmoles) with ZnCl2 (2.1 mg, 15 μmoles). ^1H NMR spectra were then obtained after mixing for 5 min, 24 h, 48 h, and 72 h at room temperature. Any chelation event would be evidenced by shifting or broadening of the thiazole and benzene protons as well as loss of the amide proton.

SMILES: CC(=O)Oc1ccccc1C(=O)Nc1ncc([N+](=O)[O-])s1 [Nitazoxanide, 2-(acetyloxy)-N-(5-nitro-2-thiazolyl)benzamide, reference compound]
- Inhibition of biofilm formation (EAEC strain 042; EAEC 042, MinA-G, 20 μg/ml): almost complete inhibition
- IC50 (EAEC strain 042; Escherichia coli, EAEC 042, DMEM and MinA-G media, read-out: IC50 biofilm production): ~12 µg/mL (≈ 39.1 µM)
- Effect on swarming motility in soft agar (EAEC): no effect
- MIC (MRSA; 2-amino-3,5-dinitrothiophene analogues table, read-out: MIC MRSA): 39.1 µM (≈ 12 µg/mL)
- MIC (MRSA; Staphylococcus aureus, MRSA, broth dilution, Trypticase Soy, 24 h, read-out: MIC (μM) MRSA): 39.1 µM (≈ 12 µg/mL)
- MIC (MRSA; Thiophene analogues table, read-out: MIC MRSA): 39.1 µM (≈ 12 µg/mL)
- Disk Diff (%) C. difficile (C. difficile; 2-amino-3,5-dinitrothiophene analogues table): 100%
- Disk Diff (%) C. difficile (C. difficile; Furan analogues table): 100%
- Disk Diff (%) C. difficile (C. difficile; Thiophene analogues table): 100%
- Disk Diffusion (%) C. difficile (C. difficile; zone of inhibited growth as relative ratio to the zone for NTZ): 100%
- MIC (C. jejuni; 2-amino-3,5-dinitrothiophene analogues table, read-out: MIC C. jejuni): 39.1 µM (≈ 12 µg/mL)
- MIC (C. jejuni; Campylobacter jejuni, Furan analogues table, read-out: MIC C. jejuni): 39.1 µM (≈ 12 µg/mL)
- MIC (C. jejuni; Campylobacter jejuni, broth dilution, Brain Heart Infusion, 24 h, read-out: MIC (μM) C. jejuni): 39.1 µM (≈ 12 µg/mL)
- MIC (C. jejuni; Thiophene analogues table, read-out: MIC C. jejuni): 39.1 µM (≈ 12 µg/mL)
- PFOR inhibition relative to nitazoxanide (=100) [1]: 100%
- PFOR inhibition relative to nitazoxanide (=100) ([1]; * biphasic initial inhibition followed by uninhibited rate, ** caused some precipitant in extract): 100%
- PFOR inhibition relative to nitazoxanide (=100) ([1]; Furan analogues table): 100%
- PFOR inhibition relative to nitazoxanide (=100) ([1]; Thiophene analogues table): 100%
- Chelation with ZnCl2 [2]: No chelation

Source: patent US8835644B2, “Broad spectrum benzothiophene-nitrothiazolide and other antimicrobials” (University of Virginia Patent Foundation, priority 2009, dated 2014)
